# Results taken from ChEMBL document CHEMBL1157539, “Thousands of chemical starting points for antimalarial lead identification” (Nature, 2010).
# System: Plasmodium falciparum
# Assay: GSK_TCMDC: Inhibition of Plasmodium falciparum 3D7 in whole erythrocytes, using parasite LDH activity as an index of growth.
# Type: functional, organism-based
# Conditions: Plasmodium falciparum, 3D7
row,Structure (SMILES),XC50 [nM]
1,COc1ccc2nc(C)cc(N/N=C/c3ccc([N+](=O)[O-])o3)c2c1,698
2,COc1cc2c(Nc3ccc(NC(=O)c4ccccc4)cc3)ncnc2cc1OCCCN1CCOCC1,648
3,Cc1ccc(C)c(Cn2ccc3nc(Cl)nc(Cl)c32)c1,911
4,CN(C)CC(O)C(c1ccccc1)c1cccc(Br)c1 (stereo not drawn),164
5,Cc1noc(-c2ccc3c(c2)CCN(CCC2CCC(NC(=O)/C=C/c4cccc(Cl)c4)CC2)CC3)n1 (stereo not drawn),998
6,O=C(Nc1ccc(-c2cccc(-c3nc4ccccc4[nH]3)c2)cc1)Nc1ccc2c(c1)OCO2,254
7,Cc1cc(NC(=O)c2sc3ccccc3c2O)no1,809
8,O=C(COc1cccc([N+](=O)[O-])c1)Nc1ccc(-c2nc3ccccc3[nH]2)cc1,754
9,O=C(/C=C/c1ccc(Cl)cc1)NCCCCCN1CCN(C(=O)Nc2ccc(Cl)c(C(F)(F)F)c2)CC1,920
10,CC(=O)Nc1ccc(S(=O)(=O)Nc2c(C)cc(Cc3cnc(N)nc3N)cc2C)cc1,1000
11,COc1ccccc1CNc1ccnc(N2CC(Oc3ccc(F)cc3)C2)n1,850
12,Cc1ccc(NC(=O)c2ccc(CN3CCCN(Cc4cccc(C#N)c4)CC3)cc2)cc1F,592
13,Cn1c(=N)n(CC(=O)N2CCc3ccc(Cl)cc3C2Cc2ccc(Cl)c(Cl)c2)c2ccccc21 (stereo not drawn),869
14,CNC(=O)c1cnc(Nc2ccc(N3CCOCC3)cc2)nc1Nc1cccc(O)c1,808
15,COc1ccc(N2CCN(CCCNC(=O)c3ccc(NC(=O)c4cc(Cl)cc(Cl)c4)cc3)CC2)c(OC)c1,269
16,CCCCCCCOc1ccc(NC(=O)Nc2ccc(Cn3ncc(N4CCCNCC4)c(Cl)c3=O)cc2)cc1,923
17,O=[N+]([O-])c1ccc2nc(Nc3ccc(Cl)c(Cl)c3)c(Nc3ccc(Cl)c(Cl)c3)nc2c1,793
18,CN(Cc1ccc(NC(=O)NC2CCN(C(=O)/C=C/c3ccc(Cl)c(Cl)c3)CC2)cc1)C1CCOCC1,876
19,CCN1CCN(CCCNc2c3ccc(Cl)cc3nc3ccc(OC)cc23)CC1,149
20,O=C(Nc1cc2cc(-c3ccc(CN4CCCCC4)cc3)ccc2n2cnnc12)NC1CCCC1,1520
21,COc1ccccc1NC(=S)N/N=C/c1ccc(O)cc1O,1020
22,CCCc1cc(C(C)=O)ccc1OCCCON1C(=N)N=C(N)NC1(C)C,4.57
23,Cc1nc(-c2ccc(-c3ccc(C(=O)Nc4ccc5c(c4)C4(CCNCC4)CO5)cc3)c(C)c2)no1,858
24,COc1ccc(-c2nc3c(N)nc(N)nc3nc2C(C)C)cc1,188
25,COc1ccc(C(=O)COc2cccc(/C=C/C(=O)O)c2)cc1OC,1320

row,Structure (SMILES),XC50 [nM]
1,COc1ccc2nc(C)cc(Nc3ccc(Oc4ccc5ccccc5c4Cl)c(Cl)c3)c2c1,501
2,COC(=O)c1ccc(CC(C)NCC(O)c2cccc(SC(F)(F)F)c2)cc1 (stereo not drawn),887
3,O=c1cc(NCCCNC(CNCCc2ccccc2)c2cc(Br)cc(Br)c2)[nH]c2ccccc12 (stereo not drawn),864
4,CCOc1cccc2nc(NCCCNCc3ccc(Cl)c(Cl)c3)cc(NCCCNCc3ccc(Cl)c(Cl)c3)c12,574
5,COc1ccc2nccc([C@@H](O)CN3CCC(NC/C=C/c4cccnc4)CC3)c2c1,622
6,Clc1cccc(CNc2nc(NCCc3c[nH]cn3)nc(NC3CCCCC3)n2)c1,790
7,CC(Cc1ccc(OCCN2CCN(c3cccc(Cl)c3)CC2)cc1)NCC(O)c1cccc(C(F)(F)F)c1 (stereo not drawn),602
8,CCc1c[nH]c2c(N3CCCC3=O)cc(C(=O)N[C@@H](Cc3ccccc3)[C@H](O)CNC(C)(C)c3cccc(C(F)(F)F)c3)cc12,115
9,CCC(CC)n1c(COC)cc2c3c(N)nc(N)nc3ccc21,5.57
10,CCCc1cc(NC2CCN(C)CC2)nc(Nc2ccc(C)cc2)n1,898
11,O=[N+]([O-])c1ccc(N/C(=N\c2ccccc2Br)NC2CCCc3ccccc32)c(O)c1 (stereo not drawn),919
12,O=C(Nc1ccc(OC2CCN(Cc3ccc(F)cc3)C2)c(Cl)c1)c1ccsc1 (stereo not drawn),538
13,c1ccc(CSC2=NNC(c3ccccn3)S2)cc1 (stereo not drawn),1480
14,O=C(NCC1CCC1)c1cnc(Nc2cccc(Cl)c2)nc1N1CCC1,862
15,COc1cc(C=CC(=O)N2CCC3(CC2)CC(=O)c2ccccc2O3)cc(OC)c1OC,761
16,CN1CCN(C(C(=O)NCc2cc(Cl)cc(Cl)c2)c2ccc(NC(=O)Nc3ccccc3)cc2)CC1 (stereo not drawn),692
17,COc1cc(NC(=O)CCCCCCCN2CCN(C)CC2)c2ncccc2c1,611
18,Nc1nccc2ccc(-c3cccc(O)c3)cc12,642
19,Cc1cc(OCC2CCN(c3ncc(C(=O)Nc4ccccc4)cc3Cl)CC2)ccc1F,899
20,CN(C(=O)/C=C/c1ccccc1F)C1CCN(CCCCCNC(=O)/C=C/c2ccc(Cl)c(Cl)c2)CC1,509
21,CCCN(CC(=O)NCCc1ccccc1)c1ccc(C#N)c2ccccc12,500
22,O=C(Nc1ccc(Cl)cc1)c1cccc(S(=O)(=O)NC2CCN(CC3CCCCC3)C2)c1 (stereo not drawn),905
23,CCn1c(-c2nonc2N)nc2cnc(Oc3cccc(NC(=O)c4ccc(OCCCN5CCCCC5)cc4)c3)cc21,925
24,Cc1ccc(O)cc1Nc1ccnc2ccc(-c3csc(CNCCN4CCOCC4)n3)cc12,153
25,Clc1ccc(CNCCCCCCNCc2ccc(Cl)cc2)cc1,845

row,Structure (SMILES),XC50 [nM]
1,CN(C)Cc1ccc(-c2ccc3ccnc(N)c3c2)cc1,380
2,CC(C)CCNC(=O)C1Cc2c([nH]c3cc(Cl)ccc23)C2(CCN(CCc3ccccc3)CC2)N1 (stereo not drawn),690
3,CCc1nc2c(cnn2CC)c(NC2CCOCC2)c1CNC(=O)N1CCOCC1,892
4,CCOc1cc(C(=O)NCc2ccc(Cl)c(Cl)c2)ccc1-c1nc2cc(Cl)ccc2[nH]1,804
5,O=C1CCCC1Sc1nc2ccccc2c(=O)n1-c1ccc(Cl)c(Cl)c1 (stereo not drawn),726
6,COc1cccc2cc(C(=O)N[C@@H](CC(C)C)C(=O)N[C@H](/C=N/N3C(=O)CN(Cc4ccccc4)C3=O)CCc3ccccc3)oc12,618
7,CC1(C)C(=O)Nc2ccc3c(c21)CC1SC(=O)NN=C31 (stereo not drawn),1490
8,c1ccc2c(CNc3ccnc(NCc4cccc5ccccc45)n3)cccc2c1,559
9,N#Cc1ccc(C(=O)NC2CCN(CCCCCNC(=O)/C=C/c3ccc(Cl)c(Cl)c3)CC2)cc1,836
10,COc1ccc(OC)c(Cc2cnc3nc(N)[nH]c(=O)c3c2C)c1,357
11,CN1CCCN(Cc2ccc(-c3cccc(NC(=O)c4ccc(Cl)cc4)c3)cc2)CC1,610
12,O=C(Nc1cccc(-c2nn3ccccc3c2-c2ccnc(Nc3cccc(N4CCCC4=O)c3)n2)c1)c1cc(F)ccc1F,212
13,CCC1CN2CCc3c([nH]c4ccccc34)C2CC1CC1=NCCc2c1[nH]c1ccccc21 (stereo not drawn),737
14,CCN(CC)CCOC(=O)c1ccc(NC(=O)c2cn(-c3ccccc3)nc2-c2cccs2)cc1,379
15,CCN(CCNc1nc(NCCc2cnc[nH]2)nc(N(CCC#N)Cc2ccccc2)n1)c1cccc(C)c1,715
16,O=C(Nc1ccc(OC2CCN(Cc3ccc(F)cc3)C2)c(Cl)c1)c1ccoc1 (stereo not drawn),938
17,O=C(Nc1ccc2nc3n(c(=O)c2c1)CCCCC3)C(=O)N1CCN(c2ccc(F)cc2)CC1,636
18,COc1ccc(C2c3ccccc3-c3nc(N)nc(N)c3C2C)cc1 (stereo not drawn),241
19,Cc1cccc2nc(-c3ccc(-c4cccc(NC(=O)Cc5c[nH]cn5)c4)cc3)[nH]c12,903
20,N=C(N)NC(=O)Nc1cc(Cl)c(Br)c(Cl)c1,469
21,Cc1cc(C)c2cc(CNCCCNc3nc4ccccc4[nH]3)[nH]c2c1,768
22,COc1ccc2nccc([C@@H](O)CN3CCC(NC(=O)C(c4cc5ccccc5o4)N4CCN(c5ccccc5OC)CC4)CC3)c2c1 (stereo partly drawn),308
23,CC(=O)N(Cc1ccc(CC(C)NCCc2cccc(Cl)c2)cc1)Cc1ccc(CC(C)NCCc2cccc(Cl)c2)cc1 (stereo not drawn),783
24,CN(C(=O)c1ccccc1)C1c2cc(C#N)ccc2OC(C)(C)C1O (stereo not drawn),654
25,NS(=O)(=O)c1cccc(-c2ccc3ncc(N4CCOCC4)nc3c2)c1,987

row,Structure (SMILES),XC50 [nM]
1,CCCCn1c(N)c(N(Cc2ccco2)C(=O)C=Cc2cc(OC)c3c(c2)OCCO3)c(O)nc1=O,946
2,CN1CCC(C(=O)Nc2ccc(-c3ccc(-c4nc5ccccc5[nH]4)cc3)cc2)CC1,976
3,COc1cccc(C(C)(C)NC[C@@H](O)[C@H](Cc2ccccc2)NC(=O)c2cc(C3CCCC3)cc(N3CCCCS3(=O)=O)c2F)c1,28.9
4,Cc1ccc(CC(C)NCC(O)c2cccc(Cl)c2)cc1F (stereo not drawn),742
5,N#Cc1ccc(NC(=O)N2CCCN(CCCCCNC(=O)/C=C/c3ccc(Cl)c(Cl)c3)CC2)cc1,768
6,Cc1ccnc(Nc2nc(-c3ccccn3)cs2)c1,998
7,COCCN1CCC(CN(C)CC(C)(C)c2nc(-c3ccc(Cl)c(O)c3)c(-c3ccncc3)[nH]2)CC1,1030
8,O=C(Nc1ccccc1)Nc1ccc(-c2cccc(-c3nc4cc(C(F)(F)F)ccc4[nH]3)c2)cc1,734
9,O=C(c1ccc(O)c(-c2cc(Cl)cc(Cl)c2)c1)N1CCCC1,1000
10,Nc1cccc(CNCc2ccc(-c3ccc(-c4nc5cc(F)ccc5[nH]4)s3)cc2)c1,992
11,O=C(Nc1cccc(C(F)(F)F)c1)c1ccc(S(=O)(=O)NCC2CCN(CC3CCCCC3)CC2)cc1,320
12,O=C(Cc1cccc(Cl)c1)N1CCc2cc3nccc(N4CCN5CCC[C@H]5C4)c3cc21,854
13,CC(C)(C)c1cc(C(=O)N2CCN(c3ncnc4ccsc34)CC2)n(Cc2ccccc2)n1,907
14,COc1cc(CCCOc2c(N)nc(N)nc2N)cc(OC)c1OC,1220
15,COc1ccc2nccc([C@@H](O)CN3CCC(NCCOc4ccccc4C#N)CC3)c2c1,398
16,COc1ccc(Nc2ncc3c(-c4ccc(NC(=O)c5cccc(C(F)(F)F)c5)cc4)c[nH]c3n2)cc1OC,1030
17,CCn1c(-c2nonc2N)nc2c(-c3cccc(NC(=O)Nc4ccccc4OC)c3)ncc(OCCCN)c21,1000
18,COC(=O)c1cc(OC2CCOC2=O)cc2c1OC(C)(C)O2 (stereo not drawn),806
19,COc1c(C2CCN(CCCCNC(=O)c3ccc(-c4ccc(Cl)cc4)c(OCCN(C)C)c3)CC2)ccc2c1CCCC2,190
20,Cn1c(NC(=O)CCCCCNC(=O)c2ccc(O)c(-c3ccc(Cl)c(Cl)c3)c2)nc2ccccc21,726
21,O=C(N[C@@H](Cc1ccccc1)[C@H](O)CNC1CCCCC1)c1cc(C2CCCC2)cc(N2CCCC2=O)c1,169
22,CN(c1ccc2c(c1)nc(NCc1ccc(F)cc1)n2C)c1ccnc(Nc2ccc(CS(C)(=O)=O)cc2)n1,828
23,COc1ccc(CNCC(C)(C)c2nc(-c3ccc(Cl)c(O)c3)c(-c3ccncc3)[nH]2)cc1,357
